We go through twelve molecules from patent US6642226B2, “Substituted phenyl-piperidine methanone compounds” (Hoffman-La Roche Inc., priority 2001, dated 2003).

One series concerns the target T1, human NK1 receptor (Homo sapiens, UniProt P25103).
T1 construct: expressed in transfected cells; host or cells: CHO cells, Semliki virus expression system; membrane suspension
The experiment in a line: NK1 receptor binding, [3H]substance P displacement. Conditions: human NK1 receptors in CHO cells, [3H]substance P 0.6 nM; for Ki: read-out: pKi (affinity to the NK-1 receptor) (converted). Here is the method: The affinity of test compounds for the NK1 receptor was evaluated at human NK1 receptors in CHO cells infected with the human NK1 receptor (using the Semliki virus expression system) and radiolabelled with [^3H]substance P (final concentration 0.6 nM). Binding assays were performed in HEPES buffer (50 mM, pH 7.4) containing BSA (0.04%) leupeptin (8 μg/ml), MnCl2 (3 mM) and phosphoramidon (2 μM). Binding assays consisted of 250 μl of membrane suspension (1.25×10^5 cells/assay tube), […] of buffer of displacing agent and 125 μl of [^3H]substance P. Displacement curves were determined with at least seven concentrations of the compound. The assay tubes were incubated for 60 min at room temperature after which time the tube contents were rapidly filtered under vacuum through GF/C filters presoaked for 60 min with PEI (0.3%) with 2×2 ml washes of HEPES buffer (50 mM, pH 7.4). The radioactivity retained on the filters was measured by scintillation counting. All assays were performed in triplicate in at least 2 separate experiments.

Series [1] is described as follows: Solubility at pH 6.5 and pH 4.3 (water-solubility). To be noted: water (aqueous medium; buffer not named).

Molecules are shown by their SMILES. Converted amounts (≈) assume the structure as drawn.

T1 sequence (P25103 whole entry): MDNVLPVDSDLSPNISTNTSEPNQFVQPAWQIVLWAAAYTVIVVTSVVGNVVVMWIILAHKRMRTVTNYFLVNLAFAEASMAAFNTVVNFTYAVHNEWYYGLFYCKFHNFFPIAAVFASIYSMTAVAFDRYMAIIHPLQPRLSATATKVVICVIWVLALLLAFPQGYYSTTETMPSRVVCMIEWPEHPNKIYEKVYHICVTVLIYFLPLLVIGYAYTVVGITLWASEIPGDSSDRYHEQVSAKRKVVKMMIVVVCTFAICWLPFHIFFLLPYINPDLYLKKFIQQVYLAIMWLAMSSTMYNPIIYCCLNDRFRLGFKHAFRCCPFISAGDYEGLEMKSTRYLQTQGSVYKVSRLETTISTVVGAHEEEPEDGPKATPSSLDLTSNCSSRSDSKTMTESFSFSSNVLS

One may read the solubility as the dissolved amount per volume that the medium holds. Read a low solubility as little dissolved substance. In the case of `CN1CCN([C@H]2CCN(C(=O)c3cc(C(F)(F)F)cc(C(F)(F)F)c3)C[C@H]2c2ccccc2)CC1` (racemic) [Example 27, Rac-cis-(3,5-Bis-trifluoromethyl-phenyl)-[4-(4-methyl-piperazin-1-yl)-3-phenyl-piperidin-1-yl]-methanone], at human NK1 receptor, the Ki was 3.09 nM. For the same molecule, the solubility in series [1] (pH 4.3, aqueous buffer) is greater than 8400 µg/mL; in series [1] (pH 6.5, aqueous buffer), 910 µg/mL (≈ 1820 µM). Take `O=C(c1cc(C(F)(F)F)cc(C(F)(F)F)c1)N1CC[C@H](N2CCNCC2)[C@H](c2ccccc2)C1` (racemic) [Example 34, Rac-cis-(3,5-Bis-trifluoromethyl-phenyl)-(3-phenyl-4-piperazin-1-yl-piperidin-1-yl)-methanone]: the solubility in series [1] (pH 4.3, aqueous buffer) is greater than 3500 µg/mL.

`O=C(c1cc(C(F)(F)F)cc(C(F)(F)F)c1)N1CC[C@H](N2CCN(CC3CC3)CC2)[C@H](c2ccccc2)C1` (racemic) [Example 36, Rac-cis-(3,5-Bis-trifluoromethyl-phenyl)-[4-(4-cyclopropylmethyl-piperazin-1-yl)-3-phenyl-piperidin-1-yl]-methanone]: the Ki at human NK1 receptor was 1.26 nM. The solubility in series [1] (pH 4.3, aqueous buffer) was greater than 7500 µg/mL. For the molecule `CN1CCN([C@H]2CCN(C(=O)c3cc(C(F)(F)F)cc(C(F)(F)F)c3)C[C@H]2c2ccc(F)cc2)CC1` (racemic) [Example 45, Rac-cis-(3,5-Bis-trifluoromethyl-phenyl)-[3-(4-fluoro-phenyl)-4-(4-methyl-piperazin-1-yl)-piperidin-1-yl]-methanone], the solubility in series [1] (pH 4.3, aqueous buffer) was found to be 2400 µg/mL (≈ 4640 µM); in series [1] (pH 6.5, aqueous buffer) it was 1000 µg/mL (≈ 1930 µM). As for `O=C(c1cc(C(F)(F)F)cc(C(F)(F)F)c1)N1CCC(N2CCC(O)CC2)C(c2ccc(Cl)cc2)C1` (racemic) [Example 63, Rac-cis-(3,5-Bis-trifluoromethyl-phenyl)-[3′-(4-chloro-phenyl)-4-hydroxy-[1,4′]bipiperidinyl-1′-yl]-methanone], the Ki at human NK1 receptor is 2.14 nM. Moreover, the solubility turned out to be 1000 µg/mL (≈ 1870 µM) in series [1] (pH 4.3, aqueous buffer) and 780 µg/mL (≈ 1460 µM) in series [1] (pH 6.5, aqueous buffer).

As a reminder, the Solubility is the concentration that dissolves in the medium under given conditions. A low value points to little dissolved substance. Turning to `Cc1ccc(C2CN(C(=O)c3cc(C(F)(F)F)cc(C(F)(F)F)c3)CCC2N2CCN(CC3CC3)CC2)cc1` (single isomer, unassigned; (-)) [Example 102, (−)-4-(3,5-Bis-trifluoromethyl-phenyl)-[4-(4-cyclopropylmethyl-piperazin-1-yl)-3-p-tolyl-piperidin-1-yl]-methanone], the “Solubility at pH 4.3” value (pH 4.3) was 5.5 mg/mL. Also, under “pH 6.5”, the “Solubility at pH 6.5” value came to 0.43 mg/mL. In addition, at human NK1 receptor, the “pKi (affinity to the NK-1 receptor)” value is 9.28. With `Cc1ccc(C2CN(C(=O)c3cc(C(F)(F)F)cc(C(F)(F)F)c3)CCC2N2CCN(C(=O)N3CCOCC3)CC2)cc1` (single isomer, unassigned; (-)) [Example 104, (−)-(3,5-Bis-trifluoromethyl-phenyl)-{4-[4-(morpholine-4-carbonyl)-piperazin-1-yl]-3-p-tolyl-piperidin-1-yl}-methanone], the Ki on human NK1 receptor is 2.34 nM. On the same count and under the same terms, in the case of `Cc1ccc(C2CN(C(=O)c3cc(C(F)(F)F)cc(C(F)(F)F)c3)CCC2N2CCN(C3CC3)CC2)cc1` (single isomer, unassigned; (-)) [Example 110, (−)-(3,5-Bis-trifluoromethyl-phenyl)-[4-(4-cyclopropyl-piperazin-1-yl)-3-p-tolyl-piperidin-1-yl]-methanone] it was 1.05 nM; in that of `Cc1ccc(C2CN(C(=O)c3cc(C(F)(F)F)cc(C(F)(F)F)c3)CCC2N2CCN(C)CC2)cc1` (single isomer, unassigned; (-)) [Example 111, (−)-(3,5-Bis-trifluoromethyl-phenyl)-[4-(4-methyl-piperazin-1-yl)-3-p-tolyl-piperidin-1-yl]-methanone], 0.457 nM. Same read-out and setting: in the case of `O=C(c1cc(C(F)(F)F)cc(C(F)(F)F)c1)N1CCC(N2CCN(CC3CC3)CC2)C(c2ccc(Cl)cc2)C1` (single isomer, unassigned; (-)) [Example 113, (−)-(3,5-Bis-trifluoromethyl-phenyl)-[3-(4-chloro-phenyl)-4-(4-cyclopropylmethyl-piperazin-1-yl)-piperidin-1-yl]-methanone] it was 0.363 nM; in that of `O=C(c1cc(C(F)(F)F)cc(C(F)(F)F)c1)N1CCC(N2CCN(CC3CC3)CC2)C(c2ccccc2)C1` (single isomer, unassigned; (-)) [Example 114, (−)-(3,5-Bis-trifluoromethyl-phenyl)-[4-(4-cyclopropylmethyl-piperazin-1-yl)-3-phenyl-piperidin-1-yl]-methanone], 0.363 nM; in that of `O=C(c1cc(C(F)(F)F)cc(C(F)(F)F)c1)N1CCC(N2CCN(CCO)CC2)C(c2ccccc2)C1` (single isomer, unassigned; (-)) [Example 115, (−)-(3,5-Bis-trifluoromethyl-phenyl)-{4-[4-(2-hydroxy-ethyl)-piperazin-1-yl]-3-phenyl-piperidin-1-yl}-methanone], 0.912 nM.
